Experimental data from patent publication US20050176746A1, “Use of compounds that are effective as selective opiate receptor modulators” (priority 2002, published 2005).

What was measured:
[1] = system: healthy subjects; assay: Satiety test (nutrient drink; maximum volume ingested and postprandial symptoms), Phase I study, 7-day treatment; assay type: in vivo, human
Text: (§1) A a single center, randomized, double-blind, placebo controlled, parallel group Phase I study has been performed. The trial evaluates the effects of a 7-day treatment with 2 different doses of the peripherally selective opiate receptor modulator asimadoline (N-methyl-N-[(1S)-1-phenyl-2-((3S)-3-hydroxypyrrolidin-1-yl)ethyl]-2,2-diphenylacetamide hydrochloride, EMD 61 753) on gastrointestinal and colonic transit and sensorimotor functions in healthy subjects in comparison to placebo.
All subjects have undergone a satiety test prior to and under medication, a scintigraphic gastric and colonic transit test, and, after overnight bowel preparation, a barostat test assessing colonic compliance and colonic sensation prior to and under medication, and fasting colonic tone and colonic response to a standardized meal under medication.
Specific aims of this study have been the comparison of the effects of 7 day treatment with placebo and three doses of asimadoline as described above on: • satiety after ingestion of a nutrient drink • colonic aggregate sensation score in response to distension in healthy subjects • thresholds for colonic sensation of gas and pain in response to distension in healthy subjects • fasting colonic compliance and tone • postprandial tonic response to standard meal ingestion
(§2) A further aim of the study was to compare the gastrointestinal and colonic transit profiles during the 7-day treatment. The studies on lower dosage (0.15 mg/kg and 0.5 mg/kg versus placebo) were performed separately as Part A and the studies on higher dosage (1.5 mg/kg versus placebo) were performed separately as Part B of the studies (see FIGS. 1 to 4).
The primary endpoint in the satiety test is difference to baseline in the aggregate satiety score 30 min after full satiety.
The analysis of primary motility endpoints (gastric residual percent at 2 hrs, colonic filling (CF) percent at 6 hrs. and colonic geometric center at 24 hrs)and the maximum satiety volume (at day 5) is based on one-way analysis of variance or analysis of covariance methods. The proportions (GE at 2 hrs and CF at 6 hrs)may warrant transformation (e.g., sin^−1{square root}) prior to analysis to stabilize variation across treatment groups. Analysis of the satiety volumes incorporates the baseline value as a covariate in addition to BMI; or alternatively, the relative changes (log [day 5 volume/baseline volume]) are analyzed with BMI as a covariate.

[2] = system: colon of healthy subjects; assay: Barostat test (intubated colonic procedure: fasting colonic volume, sensation and pain to distension), Phase I study, 7-day treatment; assay type: in vivo, human; design: key to sensation to distension (VAS score) / pain to distension (VAS score): 100 mm visual analog scale
Text: as §1, §2
All subjects are presented to the General Clinical Research Center at Charlton 7, General Clinical Research Center, on visit 3 after overnight bowel preparation with the oral colonic lavage solution (2-5 L of polyethylene glycol 3350 and electrolyte solution, NuLytely™, Abbott Laboratories, Chicago. IL), and a 12-hour fast.
Flexible colonoscopy is performed to evaluate the left side of the colon and to place a teflon guidewire into the proximal colon under fluoroscopic control. The endoscope is withdrawn.
A barostat catheter is inserted into the colon along the guidewire so that the barostat balloon is located in the upper sigmoid or descending colon. The catheter is connected to a barostat machine using an infinitely compliant 10-cm long balloon with a maximum volume of 600 cc (Hefty Baggies, Mobil Chemical Co., Pittsford, N.Y.) linked to an electronic barostat (Mayo rigid barostat, Mayo Foundation Engineering Department, Rochester, Minn.) which has a rigid piston. The manometric portion comprises six waterperfused (0.4 ml/min) pneumohydraulic sensors, three in the descending colon (sensor numbers 1-3) and three in the sigmoid colon (sensor numbers 4-6). The manometric sensors are 5 cm apart, while the first and second sensors are 5 cm oral and caudal to the balloon respectively. To decrease the effects of abdominal viscera on the balloon volume, the studies are performed with the subjects in a semi-prone position during the entire duration of the study.
Previous studies have shown that an initial “conditioning” distension to 20 mmHg renders subsequent assessments of compliance and perception more reproducible [15. 47. 48]. Following the conditioning distension, colonic compliance and sensory thresholds are measured by ramp inflation with increments of 4 mmHg, o steps at 30 second intervals from 0 to 44 mmHg; thresholds for first sensation and sensation of pain are thus determined using the ascending method of limits.
Immediately prior to assessment of colonic sensation, four 100 mm visual analog scales (VAS) scales using the anchor points “tired-energetic”, “peaceful-tense” and “worried-relaxed” and “active-drowsy” are used to determine the level of arousal, anxiety or stress being experienced by the subject. […] Subsequently, randomized-order phasic distensions at 8, 16, 24, and 32 mm Hg above operating pressure are applied to measure the sensations of gas or pain.
For rating sensory perception, the participants are asked to mark two separate VAS for abdominal pain and feeling of gas at a standardized time, 20 seconds after the distension had commenced. The VAS are anchored at the ends by the descriptions “unnoticeable” and “unbearable”. During assessment of sensation, verbal interaction between the subject and investigator is minimized.
Colonic sensation is assessed before and 1 h after drug administration during the measurement of colonic compliance. This is equivalent to finding the threshold pressures or the initial perception and pain perception during sequential pressure increments using the ascending method of limits.
The participant is allowed to rest for 15 minutes. […]

CN(C(=O)C(c1ccccc1)c1ccccc1)[C@H](CN1CC[C@H](O)C1)c1ccccc1.Cl [asimadoline, N-methyl-N-[(1S)-1-phenyl-2-((3S)-3-hydroxypyrrolidin-1-yl)ethyl]-2,2-diphenylacetamide hydrochloride]
maximum ingested volume versus placebo (in words) ([1]; 0.15 mg/kg): increase the maximum ingested volume slightly versus placebo
aggregate postprandial symptoms (VAS score) ([1]; 0.15 mg/kg, Part A (placebo 180)): 187
maximum volume ingested (satiety test) ([1]; 0.15 mg/kg, study Part A (placebo 1280 ml)): 1425 mL
maximum ingested volume versus placebo (in words) ([1]; 0.5 mg/kg): increase the maximum ingested volume significantly versus placebo
aggregate postprandial symptoms (VAS score) ([1]; 0.5 mg/kg, Part A (placebo 180)): 170
maximum volume ingested (satiety test) ([1]; 0.5 mg/kg, study Part A (placebo 1280 ml)): 1470 mL
postprandial symptoms with higher ingested volume (in words) ([1]; 1.5 mg/kg): symptoms increased with increased volume ingested
aggregate postprandial symptoms (VAS score) ([1]; 1.5 mg/kg, Part B (placebo 162)): 192
maximum volume ingested (satiety test) ([1]; 1.5 mg/kg, study Part B (placebo 1300 ml)): 1390 mL
postprandial symptoms with higher ingested volume (in words) ([1]; dosis in the range of 0.5 mg/kg): not associated with an increase in symptoms
maximum ingested volume, dose dependency (in words) ([1]; higher concentration (1.5 mg/kg)): ceiling effect established
maximum ingested volume, dose dependency (in words) ([1]; lower end of the dosis range (0.15 mg/kg)): dose response effect established
fasting volume of the colon at 0 mm pressure ([2]; 0.15 mg/kg, Part A (placebo 1 ml)): 8 mL
fasting volume versus placebo (in words) ([2]; 0.5 mg/kg): significantly higher
fasting volume of the colon at 0 mm pressure ([2]; 0.5 mg/kg, Part A (placebo 1 ml)): 21 mL
perception of distension (in words) ([2]; 0.5 mg/kg, low pressure (8 mm Hg), effect decreases by increasing pressure): significantly reduced
fasting volume of the colon at 0 mm pressure ([2]; 1.5 mg/kg, Part B (placebo 6 ml)): 24 mL
pain to distension (VAS score) ([2]; 8 mm Hg, 0.15 mg/kg, Part A (placebo 22)): 25
sensation to distension (VAS score) ([2]; 8 mm Hg, 0.15 mg/kg, Part A (placebo 37)): 38
pain to distension (VAS score) ([2]; 8 mm Hg, 0.5 mg/kg, Part A (placebo 22)): 18
sensation to distension (VAS score) ([2]; 8 mm Hg, 0.5 mg/kg, Part A (placebo 37)): 26
pain to distension (VAS score) ([2]; 8 mm Hg, 1.5 mg/kg, Part B (placebo 14)): 30
sensation to distension (VAS score) ([2]; 8 mm Hg, 1.5 mg/kg, Part B (placebo 20)): 31
pain to distension (VAS score) ([2]; 16 mm Hg, 0.15 mg/kg, Part A (placebo 33)): 28
sensation to distension (VAS score) ([2]; 16 mm Hg, 0.15 mg/kg, Part A (placebo 43)): 37
pain to distension (VAS score) ([2]; 16 mm Hg, 0.5 mg/kg, Part A (placebo 33)): 28
sensation to distension (VAS score) ([2]; 16 mm Hg, 0.5 mg/kg, Part A (placebo 43)): 37
pain to distension (VAS score) ([2]; 16 mm Hg, 1.5 mg/kg, Part B (placebo 21)): 37
sensation to distension (VAS score) ([2]; 16 mm Hg, 1.5 mg/kg, Part B (placebo 23)): 38
pain to distension (VAS score) ([2]; 24 mm Hg, 0.15 mg/kg, Part A (placebo 38)): 30
sensation to distension (VAS score) ([2]; 24 mm Hg, 0.15 mg/kg, Part A (placebo 43)): 45
pain to distension (VAS score) ([2]; 24 mm Hg, 0.5 mg/kg, Part A (placebo 38)): 32
sensation to distension (VAS score) ([2]; 24 mm Hg, 0.5 mg/kg, Part A (placebo 43)): 41
pain to distension (VAS score) ([2]; 24 mm Hg, 1.5 mg/kg, Part B (placebo 30)): 40
sensation to distension (VAS score) ([2]; 24 mm Hg, 1.5 mg/kg, Part B (placebo 42)): 41
pain to distension (VAS score) ([2]; 32 mm Hg, 0.15 mg/kg, Part A (placebo 48)): 42
sensation to distension (VAS score) ([2]; 32 mm Hg, 0.15 mg/kg, Part A (placebo 54)): 53
pain to distension (VAS score) ([2]; 32 mm Hg, 0.5 mg/kg, Part A (placebo 48)): 38
sensation to distension (VAS score) ([2]; 32 mm Hg, 0.5 mg/kg, Part A (placebo 54)): 47
pain to distension (VAS score) ([2]; 32 mm Hg, 1.5 mg/kg, Part B (placebo 43)): 47
sensation to distension (VAS score) ([2]; 32 mm Hg, 1.5 mg/kg, Part B (placebo 51)): 43
perception of pain (in words) ([2]; Barostat test, no dose stated): no significant reduction in the perception of pain could be observed
scores for pain and sensation versus placebo (in words) ([2]; higher doses (1.5 mg/kg)): significantly higher scores for pain and sensation were observed versus placebo
